Where a name gives a salt, the structure may show the parent alone.
Target: T1, recombinant human IDE42-1019 (Homo sapiens, UniProt P14735)
T1 construct: recombinant human IDE42-1019 (R&D Systems); purchased R&D Systems
T1 sequence (P14735 42-1019): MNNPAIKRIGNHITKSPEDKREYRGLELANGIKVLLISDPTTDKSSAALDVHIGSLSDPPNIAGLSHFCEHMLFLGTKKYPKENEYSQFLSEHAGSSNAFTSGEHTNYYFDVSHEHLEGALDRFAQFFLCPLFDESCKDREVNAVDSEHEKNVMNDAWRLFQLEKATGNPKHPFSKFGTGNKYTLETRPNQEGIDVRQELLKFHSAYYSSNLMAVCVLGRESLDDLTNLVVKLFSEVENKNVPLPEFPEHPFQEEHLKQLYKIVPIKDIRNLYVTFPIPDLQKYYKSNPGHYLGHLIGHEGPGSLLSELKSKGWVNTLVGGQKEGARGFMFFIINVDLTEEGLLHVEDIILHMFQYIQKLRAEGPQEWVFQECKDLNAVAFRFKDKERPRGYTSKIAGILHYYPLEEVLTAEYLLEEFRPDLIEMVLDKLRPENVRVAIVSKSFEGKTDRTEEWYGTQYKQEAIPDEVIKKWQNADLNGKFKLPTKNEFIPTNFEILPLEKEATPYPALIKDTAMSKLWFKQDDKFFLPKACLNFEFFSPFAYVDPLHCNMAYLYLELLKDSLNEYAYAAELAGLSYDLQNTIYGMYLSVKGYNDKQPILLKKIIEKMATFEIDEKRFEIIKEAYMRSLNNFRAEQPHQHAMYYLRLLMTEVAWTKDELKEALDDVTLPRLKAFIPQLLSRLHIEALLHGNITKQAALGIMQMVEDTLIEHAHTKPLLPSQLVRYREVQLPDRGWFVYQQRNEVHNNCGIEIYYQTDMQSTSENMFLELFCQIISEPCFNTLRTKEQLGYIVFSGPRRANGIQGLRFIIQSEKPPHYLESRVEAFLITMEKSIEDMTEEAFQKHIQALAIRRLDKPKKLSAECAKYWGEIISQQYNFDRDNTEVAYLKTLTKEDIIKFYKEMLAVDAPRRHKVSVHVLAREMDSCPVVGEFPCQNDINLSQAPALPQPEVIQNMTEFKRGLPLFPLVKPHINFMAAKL
Experiment: Protease assay with fluorogenic peptide substrate Mca-[…](Dnp)-OH
Type: biochemical
Conditions: fluorogenic peptide Mca-RPPGFSAFK(Dnp)-OH; for IC50: apparent IC50 for compounds with submaximal inhibition, read-out: IC50 (μM) Proteolysis; for Emax: plateau at high inhibitor concentration, read-out: Imax (%) Proteolysis (inhibition maximum)
Description: The proteases IDE42-1019, recombinant human IDE42-1019 (R&D Systems), neprilysin (R&D), and angiotensin-converting enzyme (R&D) were assayed using the fluorophore/quencher-tagged peptide substrate Mca-[…](Dnp)-OH (SEQ ID NO: 24) (R&D) according to the manufacturer's instructions and using the recommended buffers (fluorophore Mca=(7-methoxycourmarin-4-yl)acetyl and quencher Dnp=2,4-dinitrophenyl). For IDE the recommended buffer is 50 mM Tris pH 7.5, 1 M NaCl. The enzyme mixtures (48 μL) were transferred to a 96-well plate and combined with 2 μL of inhibitor in DMSO solutions, in 3-fold dilution series. The mixtures were allowed to equilibrate for 10 minutes and the enzymatic reaction was started by addition of substrate peptide in assay buffer (50 μL), mixed, and monitored on a fluorescence plate reader (excitation at 320 nm, emission at 405 nm). Similarly, thimet oligopeptidase (R&D) and neurolysin (R&D) were assayed using substrate Mca-PLGPK(Dnp)-OH (SEQ ID NO: 25) (R&D) according to the manufacturer's instructions and using the recommended buffers. Matrix metalloproteinase-1 (R&D) was activated and assayed according to the manufacturer's instructions with substrate Mca-KPLGL-Dpa-AR-NH2 (SEQ ID NO: 20) (R&D) (quencher DPA=N-3-(2,4,dinitrophenyl)-L-2,3-diaminopropionyl). All assay data points were obtained in duplicate.

Structure (SMILES)	IC50 [µM]	Emax [%]
Cc1ccccc1S(=O)(=O)NCCc1ccc(-c2cccc(C)c2C)cc1 [J3]	2.5	–
Cc1ccccc1S(=O)(=O)N1CCC(c2ccc(-c3cccc(C)c3C)cc2)CC1 [J6]	0.3	–
Cc1ccccc1S(=O)(=O)N1CC=C(c2ccc(-c3cccc(C)c3C)cc2)CC1 [J7]	> 100	–
Cc1cccc(-c2ccc(N3CCN(C(=O)C4CCCCC4)CC3)cc2)c1C [J9]	2.5	–
Cc1cccc(-c2ccc(N3CCN(C(=O)C4CCCC4)CC3)cc2)c1C [J10]	2.5	–
Cc1cccc(-c2ccc(N3CCN(C(=O)CC4CCCCC4)CC3)cc2)c1C [J16]	2.5	–
Cc1cccc(-c2ccc(C3CCN(C(=O)c4ccc5nccnc5c4)CC3)cc2)c1C [J17]	0.2	–
Cc1ccccc1S(=O)(=O)N1CCCCN2C(C1)[C@H](c1ccc(-c3cccc(C)c3C)cc1)[C@H]2CN (stereo partly shown) [JP-8N]	0.002	–
Cc1cccc(-c2ccc([C@@H]3[C@@H](CN(C)C)N4CCCCN(S(=O)(=O)c5ccccc5C(F)(F)F)C[C@@H]34)cc2)c1C [JP-17-DMA]	0.1	–
CNC[C@@H]1[C@@H](c2ccc(-c3cccc(C)c3C)cc2)[C@@H]2CN(S(=O)(=O)c3ccccc3C(F)(F)F)CCCCN12 [JP-17-NHMe]	0.007	–
COC[C@@H]1[C@@H](c2ccc(-c3cccc(C)c3C)cc2)[C@@H]2CN(S(=O)(=O)c3ccccc3C(F)(F)F)CCCCN12 [JP-17-OMe]	0.05	–
Cc1cccc(-c2ccc([C@@H]3[C@@H](CF)N4CCCCN(S(=O)(=O)c5ccccc5C(F)(F)F)C[C@@H]34)cc2)c1C [JP-18 TFA salt]	0.01	–
Cc1ccccc1S(=O)(=O)N1C/C=C\CN2C(C1)[C@H](c1ccc(-c3cccc(Cl)c3C)cc1)[C@H]2CO (stereo partly shown) [JP-28]	0.003	–
Cc1cc(O)ccc1-c1ccc([C@@H]2[C@@H](CO)N3CCCCN(S(=O)(=O)c4ccccc4C)C[C@@H]23)cc1 [JP-31]	3	–
Cc1c(Cl)cccc1-c1ccc([C@H]2C3CN(S(=O)(=O)c4ccccc4C(F)(F)F)C/C=C\CN3[C@@H]2CF)cc1 (stereo partly shown) [JP-38]	0.06	–
Cc1cc(F)ccc1-c1ccc([C@@H]2[C@@H](CO)N3CCCCN(S(=O)(=O)c4ccccc4C)C[C@@H]23)cc1 [JP-39]	0.8	–
COC[C@@H]1[C@@H](c2ccc(-c3ccc(F)c(C)c3C)cc2)[C@@H]2CN(S(=O)(=O)c3ccccc3C(F)(F)F)CCCCN12 [JP-41-OMe]	0.09	–
Cc1c(F)ccc(-c2ccc([C@@H]3[C@@H](CO)N4CCCCN(S(=O)(=O)c5ccccc5C(F)(F)F)C[C@@H]34)cc2)c1C [JP-41]	0.03	–
Cc1c(F)ccc(-c2ccc([C@@H]3[C@@H](CO)N4CCCCN(S(=O)(=O)c5cnc(C)n5C)C[C@@H]34)cc2)c1C [JP-42]	0.008	–
COC[C@@H]1[C@@H](c2ccc(-c3ccc(F)c(C)c3C)cc2)[C@@H]2CN(S(=O)(=O)c3nccn3C)CCCCN12 [JP-43-OMe]	0.15	–
Cc1c(F)ccc(-c2ccc([C@@H]3[C@@H](CO)N4CCCCN(S(=O)(=O)c5nccn5C)C[C@@H]34)cc2)c1C [JP-43]	0.004	–
COc1cc(N)ccc1S(=O)(=O)N1CCCCN2[C@H](CO)[C@@H](c3ccc(-c4cccc(C)c4C)cc3)[C@@H]2C1 [JP-S5]	0.5	–
COC[C@@H]1[C@@H](c2ccc(-c3cccc(C)c3C)cc2)[C@@H]2CN(S(=O)(=O)c3ccnn3C(C)C)CCCCN12 [JP-S10-OMe]	> 0.2	–
Cc1cccc(-c2ccc([C@@H]3[C@@H](CO)N4CCCCN(S(=O)(=O)c5ccnn5C(C)C)C[C@@H]34)cc2)c1C [JP-S10]	0.015	–
CC(=O)Nc1ccc(S(=O)(=O)N2CCCCN3[C@H](CO)[C@@H](c4ccc(-c5cccc(C)c5C)cc4)[C@@H]3C2)c(C)c1 [JP-S12]	0.03	–
Cc1cc2c(cc1S(=O)(=O)N1CCCCN3[C@H](CO)[C@@H](c4ccc(-c5cccc(C)c5C)cc4)[C@@H]3C1)OCC(=O)N2 [JP-S13]	0.1	–

Structure (SMILES)	IC50 [µM]	Emax [%]
Cc1cccc(-c2ccc([C@@H]3[C@@H](CO)N4CCCCN(S(=O)(=O)c5ccc(F)cc5C(F)(F)F)C[C@@H]34)cc2)c1C [JP-S15]	0.05	–
CCCn1nccc1S(=O)(=O)N1C/C=C\CN2C(C1)[C@H](c1ccc(-c3cccc(C)c3C)cc1)[C@H]2CO (stereo partly shown) [JP-S16]	0.03	–
Cc1cccc(-c2ccc([C@H]3C4CN(S(=O)(=O)c5cnc6n5CCCCC6)C/C=C\CN4[C@@H]3CO)cc2)c1C (stereo partly shown) [JP-S17]	0.09	–
COC[C@@H]1[C@@H](c2ccc(-c3cccc(C)c3C)cc2)C2CN(S(=O)(=O)c3cnc(C)n3C)C/C=C\CN21 (stereo partly shown) [JP-S18-OMe]	0.02	–
Cc1cccc(-c2ccc([C@H]3C4CN(S(=O)(=O)c5cnc(C)n5C)C/C=C\CN4[C@@H]3CO)cc2)c1C (stereo partly shown) [JP-S18]	0.002	–
CCn1ncc(S(=O)(=O)N2C/C=C\CN3C(C2)[C@H](c2ccc(-c4cccc(C)c4C)cc2)[C@H]3CO)c1C (stereo partly shown) [JP-S19]	0.09	–
Cc1cccc(-c2ccc([C@H]3C4CN(S(=O)(=O)c5cn(C)nc5C(F)(F)F)C/C=C\CN4[C@@H]3CO)cc2)c1C (stereo partly shown) [JP-S20]	0.03	–
COC[C@@H]1[C@@H](c2ccc(-c3cccc(C)c3C)cc2)[C@@H]2CN(S(=O)(=O)c3ccc[n+](C)c3C)CCCCN12 [JP-S21-diMe]	> 0.2	–
Cc1cccc(-c2ccc([C@H]3C4CN(S(=O)(=O)c5cccnc5C)C/C=C\CN4[C@@H]3CO)cc2)c1C (stereo partly shown) [JP-S21]	0.02	–
Cc1cccc(-c2ccc([C@@H]3[C@@H](CO)N4CCCCN(S(=O)(=O)N5CCN(C)CC5)C[C@@H]34)cc2)c1C [JP-S22]	0.03	–
Cc1cccc(-c2ccc([C@@H]3[C@@H](CO)N4CCCCN(S(=O)(=O)c5nccn5C)C[C@@H]34)cc2)c1C [JP-S23]	0.0006	–
Cc1cccc(-c2ccc([C@@H]3[C@@H](CO)N4CCCCN(S(=O)(=O)c5ccnn5C)C[C@@H]34)cc2)c1C [JP-S24]	0.01	–
Cc1cc(S(=O)(=O)N2CCCCN3[C@H](CO)[C@@H](c4ccc(-c5cccc(C)c5C)cc4)[C@@H]3C2)n(C)n1 [JP-S25]	0.02	–
COC(=O)c1ccc(S(=O)(=O)N2CCCCN3C(C2)[C@H](c2ccc(-c4cccc(C)c4C)cc2)[C@H]3CO)n1C (stereo partly shown) [JP-S27]	> 5	–
Cc1ccccc1S(=O)(=O)N1CCCCN2[C@H](CO)[C@@H](c3ccccc3)[C@@H]2C1 [K2]	> 100	–
COc1cccc(-c2ccc([C@@H]3[C@@H](CO)N4CCCCN(S(=O)(=O)c5ccccc5C)C[C@@H]34)cc2)c1 [K3]	0.4	–
COc1cccc(-c2ccc([C@H]3C4CN(S(=O)(=O)c5ccccc5C)CCCCN4[C@@H]3CO)cc2)c1 (stereo partly shown) [K3]	–	65
Cc1ccc(-c2ccc([C@H]3C4CN(S(=O)(=O)c5ccccc5C)CCCCN4[C@@H]3CO)cc2)cc1C (stereo partly shown) [K4]	–	72
Cc1ccccc1S(=O)(=O)N1CCCCN2C(C1)[C@H](c1ccc(-c3ccc4c(c3)OCO4)cc1)[C@H]2CO (stereo partly shown) [K5]	–	100
Cc1ccccc1S(=O)(=O)N1CCCCN2[C@H](CO)[C@@H](c3ccc(-c4ccc5c(c4)OCO5)cc3)[C@@H]2C1 [K5]	2.5	–
Cc1ccccc1S(=O)(=O)N1CCCCN2C(C1)[C@H](c1ccc(-c3ccccc3)cc1)[C@H]2CO (stereo partly shown) [K7]	–	65
Cc1ccccc1S(=O)(=O)N1CCCCN2C(C1)[C@H](c1ccc(-c3cccc(O)c3)cc1)[C@H]2CO (stereo partly shown) [K8]	–	100
Cc1ccccc1S(=O)(=O)N1CCCCN2C(C1)[C@H](c1ccc(-c3cccc(C)c3C)cc1)[C@H]2CO (stereo partly shown) [K9]	–	65
Cc1ccccc1S(=O)(=O)N1CCCCN2[C@H](CO)[C@@H](c3ccc(-c4cccc(C)c4C)cc3)[C@@H]2C1 [K9]	0.002	–
Cc1cc(C)cc(-c2ccc([C@@H]3[C@@H](CO)N4CCCCN(S(=O)(=O)c5ccccc5C)C[C@@H]34)cc2)c1 [K10]	0.1	–
Cc1cc(C)cc(-c2ccc([C@H]3C4CN(S(=O)(=O)c5ccccc5C)CCCCN4[C@@H]3CO)cc2)c1 (stereo partly shown) [K10]	–	72
